Results from article PMC10746280, “Bacterial efflux pump modulators prevent bacterial growth in macrophages and under broth conditions that mimic the host environment” (mBio, 2023).

Legend:
RAW 264.7 macrophages = assay: SAFIRE macrophage assay: host toxicity (adherent macrophage count, morphology); type: cell-based
Procedure, shortened: (§1)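 RAW 264.7 macrophages infected with S. Typhimurium SL1344 sifB::gfp (MOI ~30), gentamicin 40 µg/mL, then compound from 2 h to 18 h post-infection. Confocal imaging with MitoTracker and DAPI; toxicity as adherent MitoTracker-positive macrophage count, bacterial load as GFP+ macrophage area.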

[1] = system: S. Typhimurium SL1344 (sifB::gfp) in RAW 264.7 macrophages; assay: SAFIRE macrophage assay: intracellular bacterial load (GFP signal within macrophages); type: cell-based, Salmonella enterica serotype Typhimurium
Procedure, shortened: as §1

[2] = 5 uM, 'Toxic' given instead of a score
[3] = 25 uM, 'Toxic' given instead of a score
[4] = 5 uM compound, n=1, DMSO solvent control = 100
[5] = 25 uM compound, n=1, DMSO solvent control = 100
[6] = 5 uM compound, n=1, DMSO solvent control = 98, rifampicin 2 μg/mL = 65
[7] = 25 uM compound, n=1, DMSO solvent control = 98, rifampicin 2 μg/mL = 65

Row | Structure (SMILES) | 5 uM Avg Cell # Score (RAW 264.7 macrophages; 5 uM) | 25 uM Avg Cell # Score (RAW 264.7 macrophages; 25 uM) | 5 uM Avg Antibacterial Score [1, 2] | 25 uM Avg Antibacterial Score [1, 3] | IC50 ([1]; Salmonella enterica, TYPHIMURIUM, RAW264.7, read-out: SAFIRE IC50) [nM] | 5 uM Avg Cell # Score (RAW 264.7 macrophages; [4]) | 25 uM Avg Cell # Score (RAW 264.7 macrophages; [5]) | 5 uM Avg Antibacterial Score [1, 6] | 25 uM Avg Antibacterial Score [1, 7]
1 | NC1CCCN(CC(O)COc2ccc(Cl)c(Cl)c2)CC1 (stereo not drawn) [CU230] | 134 | 19 | 34 | Toxic | – | – | – | – | –
2 | CC(=O)NC1CCN(CC(O)COc2ccc(Cl)c(Cl)c2)C1 (stereo not drawn) [CU033] | 79 | 110 | 106 | 72 | – | – | – | – | –
3 | OC(COc1ccccc1Cl)CN1CCC(Nc2nccc(C(F)(F)F)n2)CC1 (stereo not drawn) [CU040] | 84 | 114 | 109 | 19 | – | – | – | – | –
4 | CCc1ccc(OCC(O)CN2CCC(Nc3nccc(C(F)(F)F)n3)CC2)cc1 (stereo not drawn) [CU074] | 71 | 114 | 10 | Toxic | – | – | – | – | –
5 | NC1CCN(CC(O)COc2ccccc2)C1 (stereo not drawn) [CU151] | 128 | 147 | 108 | 91 | – | – | – | – | –
6 | N#Cc1cccc(OCC(O)CN2CCC(Nc3nccc(C(F)(F)F)n3)CC2)c1 (stereo not drawn) [CU082] | 89 | 85 | 100 | 19 | – | – | – | – | –
7 | CN(C)C1CCN(CC(O)COc2ccc(Cl)c(Cl)c2)C1 (stereo not drawn) [CU142] | 104 | 113 | 77 | 47 | – | – | – | – | –
8 | NC(=O)C1CCN(CC(O)COc2ccc(Cl)c(Cl)c2)C1 (stereo not drawn) [CU065] | 80 | 87 | 106 | 90 | – | – | – | – | –
9 | O=C(CCOc1ccc(Cl)c(Cl)c1)N1CCC(Nc2nccc(C(F)(F)F)n2)CC1 [CU110] | 79 | 27 | 107 | Toxic | – | – | – | – | –
10 | OC(COc1cccc(C(F)(F)F)c1)CN1CCC(Nc2nccc(C(F)(F)F)n2)C1 (stereo not drawn) [CU092] | 86 | 72 | 41 | Toxic | – | – | – | – | –
11 | OC(CNC1CCNCC1)COc1ccc(Cl)cc1 (stereo not drawn) [CU198] | 110 | 110 | 83 | 34 | – | – | – | – | –
12 | OC(CNC1(c2ccccc2)CC1)COc1ccc(Cl)c(Cl)c1 (stereo not drawn) [CU132] | 82 | 39 | 102 | Toxic | – | – | – | – | –
13 | NC(=O)[C@H]1CC[C@@H](NCC(O)COc2ccc(Cl)c(Cl)c2)C1 (stereo partly drawn) [CU066] | 91 | 86 | 103 | 100 | – | – | – | – | –
14 | OC(CNCc1ccc2c(c1)OC(F)(F)O2)COc1ccc(Cl)c(Cl)c1 (stereo not drawn) [CU134] | 84 | 91 | 61 | Toxic | – | – | – | – | –
15 | NC1CCN(CC(O)COc2cc(Cl)cc(Cl)c2)CC1 (stereo not drawn) [CU191] | 100 | 15 | 14 | Toxic | – | – | – | – | –
16 | N[C@H]1CCN(CC(O)COc2ccc(Cl)c(Cl)c2)C1 (stereo partly drawn) [CU194] | 100 | 103 | 18 | 12 | – | – | – | – | –
17 | OC(COc1ccc(Cl)cc1)CN1CCC(Nc2ncccn2)CC1 (stereo not drawn) [CU044] | 84 | 100 | 91 | 36 | – | – | – | – | –
18 | OC(COc1ccc(Cl)c(Cl)c1)CN1CCN(C2CC2)CC1 (stereo not drawn) [CU182] | 102 | 101 | 105 | 73 | – | – | – | – | –

Row | Structure (SMILES) | 5 uM Avg Cell # Score (RAW 264.7 macrophages; 5 uM) | 25 uM Avg Cell # Score (RAW 264.7 macrophages; 25 uM) | 5 uM Avg Antibacterial Score [1, 2] | 25 uM Avg Antibacterial Score [1, 3] | IC50 ([1]; Salmonella enterica, TYPHIMURIUM, RAW264.7, read-out: SAFIRE IC50) [nM] | 5 uM Avg Cell # Score (RAW 264.7 macrophages; [4]) | 25 uM Avg Cell # Score (RAW 264.7 macrophages; [5]) | 5 uM Avg Antibacterial Score [1, 6] | 25 uM Avg Antibacterial Score [1, 7]
19 | OC(COc1ccc(Cl)c(Cl)c1)CN1CCC2(CCO2)CC1 (stereo not drawn) [CU229] | 147 | 141 | 101 | 83 | – | – | – | – | –
20 | CNC(=O)C1CCN(CC(O)COc2ccc(Cl)c(Cl)c2)CC1 (stereo not drawn) [CU057] | 85 | 89 | 101 | 93 | – | – | – | – | –
21 | OC(COc1ccc(F)c(F)c1)CN1CCC(Nc2ncccn2)CC1 (stereo not drawn) [CU170] | 100 | 107 | 109 | 107 | – | – | – | – | –
22 | OC(COc1ccc(Cl)c(Cl)c1)CN1CCC(F)C1 (stereo not drawn) [CU125] | 81 | 86 | 102 | 73 | – | – | – | – | –
23 | N[C@H]1CC[C@@H](N2CC(COc3cc(Cl)cc(Cl)c3)OC2=O)CC1 (stereo partly drawn) [CU218] | 163 | 131 | 83 | 15 | – | – | – | – | –
24 | CC(=O)N(CCNc1nccc(C(F)(F)F)n1)CC(O)COc1ccc(Cl)c(Cl)c1 (stereo not drawn) [CU071] | 62 | 56 | 85 | Toxic | – | – | – | – | –
25 | OC(COc1ccc(Cl)c(Cl)c1)CN1CCC(n2ccnc2)CC1 (stereo not drawn) [CU179] | 98 | 91 | 36 | 19 | 45 | – | – | – | –
26 | OC(COc1ccc(Cl)c(Cl)c1)CN1CC2CC(C1)O2 (stereo not drawn) [CU223] | 106 | 100 | 104 | 103 | – | – | – | – | –
27 | NCCC1CCN(CC(O)COc2ccc(Cl)c(Cl)c2)CC1 (stereo not drawn) [CU249] | – | – | – | – | – | 123 | 56 | 17 | Toxic
28 | CC(=O)NC1CCN(CC(O)COc2ccc(Cl)c(Cl)c2)CC1 (stereo not drawn) [CU063] | 107 | 119 | 102 | 78 | – | – | – | – | –
29 | N=C(N)NC1CCN(CC(O)COc2ccc(Cl)c(Cl)c2)C1 (stereo not drawn) [CU197] | 109 | 117 | 103 | 87 | – | – | – | – | –
30 | NC1CCN(CC(O)COc2ccc(F)cc2F)C1 (stereo not drawn) [CU167] | 109 | 113 | 75 | 58 | – | – | – | – | –
31 | OC(COc1ccc(Cl)c(Cl)c1)CN1CC2CCC(C1)O2 (stereo not drawn) [CU226] | 108 | 74 | 102 | 108 | – | – | – | – | –
32 | N[C@H]1CCN(C[C@H](O)COc2ccc(Cl)c(Cl)c2)C1 [CU238] | – | – | – | – | – | 126 | 102 | 34 | 12
33 | NCCC1CCN(CC(O)COc2cc(Cl)cc(Cl)c2)C1 (stereo not drawn) [CU252] | – | – | – | – | – | 114 | 117 | 98 | 77
34 | OC(CNCCNc1nccc(C(F)(F)F)n1)COc1ccc(Cl)c(Cl)c1 (stereo not drawn) [CU070] | 49 | 65 | Toxic | Toxic | – | – | – | – | –
35 | OC(COc1ccc(F)cc1)CN1CCC(Nc2ncccn2)CC1 (stereo not drawn) [CU045] | 86 | 109 | 101 | 99 | – | – | – | – | –
